According to PubChem BioAssay (NCI):
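Where inhibition never reached the appropriate level, the endpoint shown equals the highest concentration tested. Otherwise, values were interpolated linearly from a five-concentration, 48-hour dose response in 96-well plates. At the GI50, growth is halved. At the TGI there is no net growth.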

How the values were obtained:
Experiment in all cases: NCI tumour cell line growth inhibition, 48 h
[1] = test system: 786-0 renal
[2] = test system: OVCAR-4 ovarian
[3] = test system: RPMI-8226 leukemia
[4] = test system: ACHN renal
[5] = test system: EKVX NSCLC
[6] = test system: NCI/ADR-RES ovarian
[7] = test system: SF-295 CNS
[8] = test system: MDA-MB-231 breast
[9] = test system: IGROV1 ovarian
[10] = test system: U251 CNS
[11] = test system: NCI-H522 lung
[12] = test system: SK-MEL-2 melanoma
[13] = test system: SF-268 CNS
[14] = test system: SNB-19 CNS
[15] = test system: MCF7 breast
[16] = test system: M14 melanoma
[17] = test system: BT-549 breast
[18] = test system: KM12 colon
[19] = test system: TK-10 renal
[20] = test system: PC-3 prostate
[21] = test system: HS 578T breast
[22] = test system: HOP-92 NSCLC
[23] = test system: SK-OV-3 ovarian
[24] = test system: MOLT-4 leukemia
[25] = test system: UO-31 renal
[26] = test system: SNB-75 CNS
[27] = test system: K-562 leukemia
[28] = test system: MDA-MB-435
[29] = test system: SK-MEL-28 melanoma
[30] = test system: SK-MEL-5 melanoma
[31] = test system: NCI-H23 lung
[32] = test system: SW-620 colon
[33] = test system: DU-145 prostate
[34] = test system: CCRF-CEM leukemia
[35] = test system: HCT-116 colon
[36] = test system: OVCAR-3 ovarian
[37] = test system: HCT-15 colon
[38] = test system: OVCAR-8 ovarian
[39] = test system: NCI-H460 lung
[40] = test system: UACC-62 melanoma
[41] = test system: SN12C renal
[42] = test system: T-47D breast
[43] = test system: HOP-62 NSCLC
[44] = test system: OVCAR-5 ovarian
[45] = test system: LOX IMVI melanoma
[46] = test system: RXF 393 renal
[47] = test system: SF-539 CNS
[48] = test system: UACC-257 melanoma
[49] = test system: COLO 205 colon
[50] = test system: HCC-2998 colon
[51] = test system: CAKI-1 renal
[52] = test system: HT29 colon
[53] = test system: A549 NSCLC
[54] = test system: HL-60(TB) leukemia
[55] = test system: SR leukemia
[56] = test system: MALME-3M melanoma
[57] = test system: A498 renal

SMILES: CN1C(=O)/C(=C2\S/C(=N\c3nnc(-c4ccccc4)o3)NC2=O)c2ccccc21
- GI50 [1]: > 100 µM
- TGI [1]: > 100 µM
- GI50 [2]: > 100 µM
- TGI [2]: > 100 µM
- GI50 [3]: > 100 µM
- TGI [3]: > 100 µM
- GI50 [4]: > 100 µM
- TGI [4]: > 100 µM
- GI50 [5]: > 100 µM
- TGI [5]: > 100 µM
- GI50 [6]: 84.7 µM
- TGI [6]: > 100 µM
- GI50 [7]: 41.2 µM
- TGI [7]: > 100 µM
- GI50 [8]: > 100 µM
- TGI [8]: > 100 µM
- GI50 [9]: 59.9 µM
- TGI [9]: > 100 µM
- GI50 [10]: 66.4 µM
- TGI [10]: > 100 µM
- GI50 [11]: > 100 µM
- TGI [11]: > 100 µM
- GI50 [12]: > 100 µM
- TGI [12]: > 100 µM
- GI50 [13]: > 100 µM
- TGI [13]: > 100 µM
- GI50 [14]: > 100 µM
- TGI [14]: > 100 µM
- GI50 [15]: 91.9 µM
- TGI [15]: > 100 µM
- GI50 [16]: > 100 µM
- TGI [16]: > 100 µM
- GI50 [17]: > 100 µM
- TGI [17]: > 100 µM
- GI50 [18]: > 100 µM
- TGI [18]: > 100 µM
- GI50 [19]: > 100 µM
- TGI [19]: > 100 µM
- GI50 [20]: > 100 µM
- TGI [20]: > 100 µM
- GI50 [21]: > 100 µM
- TGI [21]: > 100 µM
- GI50 [22]: > 100 µM
- TGI [22]: > 100 µM
- GI50 [23]: > 100 µM
- TGI [23]: > 100 µM
- GI50 [24]: > 100 µM
- TGI [24]: > 100 µM
- GI50 [25]: > 100 µM
- TGI [25]: > 100 µM
- GI50 [26]: > 100 µM
- TGI [26]: > 100 µM
- GI50 [27]: > 100 µM
- TGI [27]: > 100 µM
- GI50 [28]: > 100 µM
- TGI [28]: > 100 µM
- GI50 [29]: > 100 µM
- TGI [29]: > 100 µM
- GI50 [30]: 90.1 µM
- TGI [30]: > 100 µM
- GI50 [31]: > 100 µM
- TGI [31]: > 100 µM
- GI50 [32]: > 100 µM
- TGI [32]: > 100 µM
- GI50 [33]: > 100 µM
- TGI [33]: > 100 µM
- GI50 [34]: 63.7 µM
- TGI [34]: > 100 µM
- GI50 [35]: 92.4 µM
- TGI [35]: > 100 µM
- GI50 [36]: > 100 µM
- TGI [36]: > 100 µM
- GI50 [37]: > 100 µM
- TGI [37]: > 100 µM
- GI50 [38]: > 100 µM
- TGI [38]: > 100 µM
- GI50 [39]: 65.6 µM
- TGI [39]: > 100 µM
- GI50 [40]: 79.2 µM
- TGI [40]: > 100 µM
- GI50 [41]: > 100 µM
- TGI [41]: > 100 µM
- GI50 [42]: > 100 µM
- TGI [42]: > 100 µM
- GI50 [43]: 68.8 µM
- TGI [43]: > 100 µM
- GI50 [44]: > 100 µM
- TGI [44]: > 100 µM
- GI50 [45]: 77.9 µM
- TGI [45]: > 100 µM
- GI50 [46]: > 100 µM
- TGI [46]: > 100 µM
- GI50 [47]: > 100 µM
- TGI [47]: > 100 µM
- GI50 [48]: 34.4 µM
- TGI [48]: > 100 µM
- GI50 [49]: > 100 µM
- TGI [49]: > 100 µM
- GI50 [50]: > 100 µM
- TGI [50]: > 100 µM
- GI50 [51]: 51.8 µM
- TGI [51]: > 100 µM
- GI50 [52]: > 100 µM
- TGI [52]: > 100 µM
- GI50 [53]: 43.9 µM
- TGI [53]: > 100 µM

SMILES: Clc1ccc(-c2nc3c(-c4ccccc4)nc(-c4ccccc4)cn3c2-c2ccc(Cl)cc2)cc1
- GI50 [1]: > 100 µM
- TGI [1]: > 100 µM
- GI50 [2]: > 100 µM
- TGI [2]: > 100 µM
- GI50 [3]: > 100 µM
- TGI [3]: > 100 µM
- GI50 [4]: > 100 µM
- TGI [4]: > 100 µM
- GI50 [5]: > 100 µM
- TGI [5]: > 100 µM
- GI50 [6]: > 100 µM
- TGI [6]: > 100 µM
- GI50 [7]: > 100 µM
- TGI [7]: > 100 µM
- GI50 [8]: > 100 µM
- TGI [8]: > 100 µM
- GI50 [9]: > 100 µM
- TGI [9]: > 100 µM
- GI50 [10]: > 100 µM
- TGI [10]: > 100 µM
- GI50 [11]: > 100 µM
- TGI [11]: > 100 µM
- GI50 [12]: > 100 µM
- TGI [12]: > 100 µM
- GI50 [13]: > 100 µM
- TGI [13]: > 100 µM
- GI50 [14]: > 100 µM
- TGI [14]: > 100 µM
- GI50 [15]: > 100 µM
- TGI [15]: > 100 µM
- GI50 [16]: > 100 µM
- TGI [16]: > 100 µM
- GI50 [17]: > 100 µM
- TGI [17]: > 100 µM
- GI50 [18]: > 100 µM
- TGI [18]: > 100 µM
- GI50 [19]: > 100 µM
- TGI [19]: > 100 µM
- GI50 [20]: > 100 µM
- TGI [20]: > 100 µM
- GI50 [21]: > 100 µM
- TGI [21]: > 100 µM
- GI50 [22]: > 100 µM
- TGI [22]: > 100 µM
- GI50 [23]: > 100 µM
- TGI [23]: > 100 µM
- GI50 [24]: > 100 µM
- TGI [24]: > 100 µM
- GI50 [25]: > 100 µM
- TGI [25]: > 100 µM
- GI50 [26]: 91.4 µM
- TGI [26]: > 100 µM
- GI50 [27]: > 100 µM
- TGI [27]: > 100 µM
- GI50 [28]: > 100 µM
- TGI [28]: > 100 µM
- GI50 [29]: > 100 µM
- TGI [29]: > 100 µM
- GI50 [54]: > 100 µM
- TGI [54]: > 100 µM
- GI50 [30]: > 100 µM
- TGI [30]: > 100 µM
- GI50 [55]: > 100 µM
- TGI [55]: > 100 µM
- GI50 [31]: > 100 µM
- TGI [31]: > 100 µM
- GI50 [32]: > 100 µM
- TGI [32]: > 100 µM
- GI50 [33]: > 100 µM
- TGI [33]: > 100 µM
- GI50 [34]: > 100 µM
- TGI [34]: > 100 µM
- GI50 [35]: > 100 µM
- TGI [35]: > 100 µM
- GI50 [36]: > 100 µM
- TGI [36]: > 100 µM
- GI50 [37]: > 100 µM
- TGI [37]: > 100 µM
- GI50 [38]: > 100 µM
- TGI [38]: > 100 µM
- GI50 [39]: > 100 µM
- TGI [39]: > 100 µM
- GI50 [40]: > 100 µM
- TGI [40]: > 100 µM
- GI50 [41]: > 100 µM
- TGI [41]: > 100 µM
- GI50 [42]: > 100 µM
- TGI [42]: > 100 µM
- GI50 [43]: > 100 µM
- TGI [43]: > 100 µM
- GI50 [44]: > 100 µM
- TGI [44]: > 100 µM
- GI50 [45]: > 100 µM
- TGI [45]: > 100 µM
- GI50 [46]: > 100 µM
- TGI [46]: > 100 µM
- GI50 [47]: > 100 µM
- TGI [47]: > 100 µM
- GI50 [48]: > 100 µM
- TGI [48]: > 100 µM
- GI50 [49]: > 100 µM
- TGI [49]: > 100 µM
- GI50 [50]: > 100 µM
- TGI [50]: > 100 µM
- GI50 [51]: > 100 µM
- TGI [51]: > 100 µM
- GI50 [52]: > 100 µM
- TGI [52]: > 100 µM
- GI50 [56]: > 100 µM
- TGI [56]: > 100 µM
- GI50 [57]: > 100 µM
- TGI [57]: > 100 µM
- GI50 [53]: > 100 µM
- TGI [53]: > 100 µM
